In ChEMBL document CHEMBL1201862, “PubChem BioAssay data set” (2004):
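Tested at 5 concentrations; 48 h exposure; 96-well plates; endpoints linearly interpolated, else capped at highest concentration. GI50 marks 50% less growth.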 The source made the active and inactive calls. Rule as the data show it: active = GI50 up to about 1.1 µM and inactive = higher.

How the values were obtained:
Test in all cases: NCI anticancer screen, dose series, 48 h
[1] = system: OVCAR-8
[2] = system: MDA-MB-231
[3] = system: LOX IMVI
[4] = system: NCI-H23
[5] = system: SNB-75
[6] = system: SF-295
[7] = system: RXF 393
[8] = system: DU-145
[9] = system: HCT-15
[10] = system: A498
[11] = system: Hs-578T
[12] = system: UACC-257
[13] = system: HOP-92
[14] = system: RPMI-8226
[15] = system: NCI-H522
[16] = system: NCI-H460
[17] = system: CCRF-CEM
[18] = system: HCC 2998
[19] = system: SF-268

CCC1(CC)N=C(C(F)(F)F)c2cc(C(=O)C(F)(F)F)c3ccccc3c2N1
GI50 [1]: 3.66 µM (inactive)
GI50 [2]: 3.44 µM (inactive)
GI50 [3]: 3.64 µM (inactive)
GI50 [4]: 3.24 µM (inactive)
GI50 [5]: 4.2 µM (inactive)
GI50 [6]: 3.14 µM (inactive)
GI50 [7]: 3.15 µM (inactive)
GI50 [8]: 3.6 µM (inactive)
GI50 [9]: 4.22 µM
GI50 [10]: 15.6 µM (inactive)
GI50 [11]: 5.83 µM (inactive)
GI50 [12]: 7.8 µM (inactive)
GI50 [13]: 2.67 µM (inactive)
GI50 [14]: 2.58 µM (inactive)
GI50 [15]: 3.94 µM (inactive)
GI50 [16]: 4.16 µM (inactive)
GI50 [17]: 3.67 µM (inactive)
GI50 [18]: 4.39 µM (inactive)
GI50 [19]: 8.43 µM (inactive)

COC(=O)C(CCc1ccccc1I)C1=CCC2(CC1)OCCO2 (stereo unspecified)
GI50 [1]: 42 µM (inactive)
GI50 [2]: 65.5 µM (inactive)
GI50 [3]: 25.8 µM (inactive)
GI50 [4]: 30.7 µM (inactive)
GI50 [5]: 34 µM (inactive)
GI50 [6]: 36.9 µM (inactive)
GI50 [7]: 17.9 µM (inactive)
GI50 [8]: 73.8 µM (inactive)
GI50 [9]: 34.1 µM
GI50 [10]: > 100 µM (inactive)
GI50 [11]: 37.6 µM (inactive)
GI50 [12]: 29.4 µM (inactive)
GI50 [13]: 30.4 µM (inactive)
GI50 [14]: 62.2 µM (inactive)
GI50 [15]: 18.7 µM (inactive)
GI50 [16]: 65.8 µM (inactive)
GI50 [17]: 14 µM (inactive)
GI50 [18]: 33.6 µM (inactive)
GI50 [19]: 57.9 µM (inactive)

COc1ccc(C(=O)/C=C/c2cc(O)c(O)c(F)c2F)c(OC)c1
GI50 [1]: 20.8 µM (inactive)
GI50 [2]: 18.8 µM (inactive)
GI50 [3]: 13.6 µM (inactive)
GI50 [4]: 13.8 µM (inactive)
GI50 [5]: 22.4 µM (inactive)
GI50 [6]: 18.5 µM (inactive)
GI50 [7]: 18.2 µM (inactive)
GI50 [8]: 23.9 µM (inactive)
GI50 [9]: 4.99 µM
GI50 [10]: 20.1 µM (inactive)
GI50 [11]: 61.4 µM (inactive)
GI50 [12]: 15.9 µM (inactive)
GI50 [13]: 46.7 µM (inactive)
GI50 [14]: 8.83 µM (inactive)
GI50 [15]: 11.2 µM (inactive)
GI50 [16]: 4.45 µM (inactive)
GI50 [17]: 3.92 µM (inactive)
GI50 [18]: 4.75 µM (inactive)
GI50 [19]: 18.6 µM (inactive)

CC/C=C\C=C/C(=O)N/C=C/CCC
GI50 [1]: > 100 µM (inactive)
GI50 [2]: > 100 µM (inactive)
GI50 [3]: > 100 µM (inactive)
GI50 [4]: > 100 µM (inactive)
GI50 [5]: > 100 µM (inactive)
GI50 [7]: > 100 µM (inactive)
GI50 [8]: > 100 µM (inactive)
GI50 [9]: > 100 µM
GI50 [10]: 23.5 µM (inactive)
GI50 [11]: > 100 µM (inactive)
GI50 [12]: > 100 µM (inactive)
GI50 [13]: 27.7 µM (inactive)
GI50 [14]: 40.2 µM (inactive)
GI50 [15]: 17.5 µM (inactive)
GI50 [16]: > 100 µM (inactive)
GI50 [17]: 4.27 µM (inactive)
GI50 [18]: 23.3 µM (inactive)
GI50 [19]: > 100 µM (inactive)

CCOC(=O)NC1CN2CCC1CC2 (stereo unspecified)
GI50 [1]: > 100 µM (inactive)
GI50 [2]: > 100 µM (inactive)
GI50 [3]: > 100 µM (inactive)
GI50 [4]: > 100 µM (inactive)
GI50 [5]: > 100 µM (inactive)
GI50 [6]: > 100 µM (inactive)
GI50 [7]: > 100 µM (inactive)
GI50 [8]: > 100 µM (inactive)
GI50 [9]: > 100 µM
GI50 [10]: > 100 µM (inactive)
GI50 [11]: > 100 µM (inactive)
GI50 [12]: > 100 µM (inactive)
GI50 [13]: > 100 µM (inactive)
GI50 [14]: > 100 µM (inactive)
GI50 [15]: > 100 µM (inactive)
GI50 [16]: > 100 µM (inactive)
GI50 [17]: > 100 µM (inactive)
GI50 [18]: > 100 µM (inactive)
GI50 [19]: > 100 µM (inactive)

O=C1C(SCCO)=C(SCCO)C(=O)c2ccccc21
GI50 [1]: 0.579 µM (active)
GI50 [2]: 1.48 µM (inactive)
GI50 [3]: 0.222 µM (active)
GI50 [4]: 0.518 µM (active)
GI50 [5]: 1.29 µM (inactive)
GI50 [6]: 1.48 µM (inactive)
GI50 [7]: 1.33 µM (inactive)
GI50 [8]: 2.05 µM (inactive)
GI50 [9]: 1.39 µM
GI50 [10]: 0.59 µM (active)
GI50 [11]: 1.17 µM (inactive)
GI50 [12]: 1.29 µM (inactive)
GI50 [13]: 0.805 µM (active)
GI50 [14]: 0.865 µM (active)
GI50 [15]: 1.86 µM (inactive)
GI50 [16]: 1.77 µM (inactive)
GI50 [17]: 0.916 µM (active)
GI50 [18]: 1.74 µM (inactive)
GI50 [19]: 1.56 µM (inactive)

Cc1nc2c(sc(=S)n2-c2ccccc2)c2nc3ncccc3n12
GI50 [1]: > 100 µM (inactive)
GI50 [2]: 45.1 µM (inactive)
GI50 [3]: > 100 µM (inactive)
GI50 [4]: > 100 µM (inactive)
GI50 [5]: 23.6 µM (inactive)
GI50 [6]: 77.4 µM (inactive)
GI50 [7]: 34.8 µM (inactive)
GI50 [8]: > 100 µM (inactive)
GI50 [9]: > 100 µM
GI50 [10]: > 100 µM (inactive)
GI50 [11]: > 100 µM (inactive)
GI50 [12]: > 100 µM (inactive)
GI50 [13]: > 100 µM (inactive)
GI50 [14]: > 100 µM (inactive)
GI50 [15]: > 100 µM (inactive)
GI50 [16]: > 100 µM (inactive)
GI50 [17]: > 100 µM (inactive)
GI50 [18]: > 100 µM (inactive)
GI50 [19]: 66.7 µM (inactive)

Clc1ccc(COC(Cn2ccnc2)c2ccc(Cl)cc2Cl)cc1 (stereo unspecified) [ECONAZOLE NITRATE]
GI50 [1]: 14.8 µM (inactive)
GI50 [2]: 12.4 µM (inactive)
GI50 [3]: 9.57 µM (inactive)
GI50 [4]: 13.2 µM (inactive)
GI50 [5]: 15.6 µM (inactive)
GI50 [6]: 9.57 µM (inactive)
GI50 [7]: 14.1 µM (inactive)
GI50 [8]: 14.4 µM (inactive)
GI50 [9]: 12.8 µM
GI50 [10]: 11.6 µM (inactive)
GI50 [11]: 17.1 µM (inactive)
GI50 [12]: 10.4 µM (inactive)
GI50 [13]: 11.8 µM (inactive)
GI50 [14]: 4.22 µM (inactive)
GI50 [15]: 8.24 µM (inactive)
GI50 [16]: 10.7 µM (inactive)
GI50 [17]: 5.87 µM (inactive)
GI50 [18]: 15.6 µM (inactive)
GI50 [19]: 14.7 µM (inactive)
